US9156845B2, “4-(substituted amino)-7H-pyrrolo[2,3-d] pyrimidines as LRRK2 inhibitors” (Pfizer Inc., priority 2012, dated 2015)

Columns and labels:
Test in all cases: ActivX kinase probe assay (human PBMC)
Type in all cases: binding
BTK = BTK (Homo sapiens (Human), UniProt Q06187); details: BTK, read-out: percent inhibition
CaMK1d = CaMK1d (Homo sapiens (Human), UniProt Q8IU85); details: CaMK1d, read-out: percent inhibition
DNAPK = DNAPK (Homo sapiens (Human), UniProt P78527); details: DNAPK, read-out: percent inhibition
EphA1 = EphA1 (Homo sapiens (Human), UniProt P21709); details: EphA1, read-out: percent inhibition
FGR = FGR (Homo sapiens (Human), UniProt P09769); details: FGR, read-out: percent inhibition
FRAP = FRAP (Homo sapiens (Human), UniProt P42345); details: FRAP, read-out: percent inhibition
GSK3B = GSK3B (Homo sapiens (Human), UniProt P49841); details: GSK3B, read-out: percent inhibition
HPK1 = HPK1 (Homo sapiens (Human), UniProt Q92918); details: HPK1, read-out: percent inhibition
IKKa = IKKa (Homo sapiens (Human), UniProt O15111); details: IKKa, read-out: percent inhibition
IKKb = IKKb (Homo sapiens (Human), UniProt O14920); details: IKKb, read-out: percent inhibition
ILK = ILK (Homo sapiens (Human), UniProt Q13418); details: ILK, read-out: percent inhibition
Sequence of ILK (Q13418 whole entry): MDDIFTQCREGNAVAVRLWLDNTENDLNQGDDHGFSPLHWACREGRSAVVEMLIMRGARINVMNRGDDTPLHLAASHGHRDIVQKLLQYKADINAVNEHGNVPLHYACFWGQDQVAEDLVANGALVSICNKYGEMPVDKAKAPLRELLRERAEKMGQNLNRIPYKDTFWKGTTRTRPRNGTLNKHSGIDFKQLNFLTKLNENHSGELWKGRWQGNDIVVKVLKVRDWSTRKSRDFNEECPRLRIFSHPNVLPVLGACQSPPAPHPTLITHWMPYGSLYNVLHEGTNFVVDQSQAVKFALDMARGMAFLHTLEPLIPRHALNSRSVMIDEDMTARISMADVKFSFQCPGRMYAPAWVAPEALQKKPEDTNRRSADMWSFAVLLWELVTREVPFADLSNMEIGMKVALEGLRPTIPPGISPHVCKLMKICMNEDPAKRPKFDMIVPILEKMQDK

IRAK3 = IRAK3 (Homo sapiens (Human), UniProt Q9Y616); details: IRAK3, read-out: percent inhibition
JAK1 = JAK1 (Homo sapiens (Human), UniProt P23458); details: JAK1, read-out: percent inhibition
JAK3 domain2 = JAK3 domain2 (Homo sapiens (Human), UniProt P52333); details: JAK3 domain2, read-out: percent inhibition
JNK1, JNK2, JNK3 = system: JNK1, JNK2, JNK3
LKB1 = LKB1 (Homo sapiens (Human), UniProt Q15831); details: LKB1, read-out: percent inhibition
LYN = LYN (Homo sapiens (Human), UniProt P07948); details: LYN, read-out: percent inhibition
MAP2K3 = MAP2K3 (Homo sapiens (Human), UniProt P46734); details: MAP2K3, read-out: percent inhibition
Sequence of MAP2K3 (P46734 whole entry): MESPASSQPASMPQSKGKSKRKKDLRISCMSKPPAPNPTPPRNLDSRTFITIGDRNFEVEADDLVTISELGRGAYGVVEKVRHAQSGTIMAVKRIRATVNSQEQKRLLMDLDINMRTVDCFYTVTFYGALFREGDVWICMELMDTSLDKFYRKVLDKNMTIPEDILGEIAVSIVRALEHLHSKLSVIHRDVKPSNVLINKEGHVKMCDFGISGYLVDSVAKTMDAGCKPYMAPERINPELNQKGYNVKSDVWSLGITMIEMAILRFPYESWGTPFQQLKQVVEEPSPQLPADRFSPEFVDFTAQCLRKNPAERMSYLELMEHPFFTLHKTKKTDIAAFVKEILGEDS

MAP2K4 = MAP2K4 (Homo sapiens (Human), UniProt P45985); details: MAP2K4, read-out: percent inhibition
MAP3K1 = MAP3K1 (Homo sapiens (Human), UniProt Q13233); details: MAP3K1, read-out: percent inhibition
MARK3 = MARK3 (Homo sapiens (Human), UniProt P27448); details: MARK3, read-out: percent inhibition
MST3 = MST3 (Homo sapiens (Human), UniProt Q9Y6E0); details: MST3, read-out: percent inhibition
NEK1 = NEK1 (Homo sapiens (Human), UniProt Q96PY6); details: NEK1, read-out: percent inhibition
NEK6, NEK7 = system: NEK6, NEK7
NEK7 = NEK7 (Homo sapiens (Human), UniProt Q8TDX7); details: NEK7, read-out: percent inhibition
p38d, p38g = system: p38d, p38g
p70S6K = p70S6K (Homo sapiens (Human), UniProt P23443); details: p70S6K, read-out: percent inhibition
p70S6K, p70S6Kb = system: p70S6K, p70S6Kb
PIK3C3 = PIK3C3 (Homo sapiens (Human), UniProt Q8NEB9); details: PIK3C3, read-out: percent inhibition
PIK3CB = PIK3CB (Homo sapiens (Human), UniProt P42338); details: PIK3CB, read-out: percent inhibition
Sequence of PIK3CB (P42338 whole entry): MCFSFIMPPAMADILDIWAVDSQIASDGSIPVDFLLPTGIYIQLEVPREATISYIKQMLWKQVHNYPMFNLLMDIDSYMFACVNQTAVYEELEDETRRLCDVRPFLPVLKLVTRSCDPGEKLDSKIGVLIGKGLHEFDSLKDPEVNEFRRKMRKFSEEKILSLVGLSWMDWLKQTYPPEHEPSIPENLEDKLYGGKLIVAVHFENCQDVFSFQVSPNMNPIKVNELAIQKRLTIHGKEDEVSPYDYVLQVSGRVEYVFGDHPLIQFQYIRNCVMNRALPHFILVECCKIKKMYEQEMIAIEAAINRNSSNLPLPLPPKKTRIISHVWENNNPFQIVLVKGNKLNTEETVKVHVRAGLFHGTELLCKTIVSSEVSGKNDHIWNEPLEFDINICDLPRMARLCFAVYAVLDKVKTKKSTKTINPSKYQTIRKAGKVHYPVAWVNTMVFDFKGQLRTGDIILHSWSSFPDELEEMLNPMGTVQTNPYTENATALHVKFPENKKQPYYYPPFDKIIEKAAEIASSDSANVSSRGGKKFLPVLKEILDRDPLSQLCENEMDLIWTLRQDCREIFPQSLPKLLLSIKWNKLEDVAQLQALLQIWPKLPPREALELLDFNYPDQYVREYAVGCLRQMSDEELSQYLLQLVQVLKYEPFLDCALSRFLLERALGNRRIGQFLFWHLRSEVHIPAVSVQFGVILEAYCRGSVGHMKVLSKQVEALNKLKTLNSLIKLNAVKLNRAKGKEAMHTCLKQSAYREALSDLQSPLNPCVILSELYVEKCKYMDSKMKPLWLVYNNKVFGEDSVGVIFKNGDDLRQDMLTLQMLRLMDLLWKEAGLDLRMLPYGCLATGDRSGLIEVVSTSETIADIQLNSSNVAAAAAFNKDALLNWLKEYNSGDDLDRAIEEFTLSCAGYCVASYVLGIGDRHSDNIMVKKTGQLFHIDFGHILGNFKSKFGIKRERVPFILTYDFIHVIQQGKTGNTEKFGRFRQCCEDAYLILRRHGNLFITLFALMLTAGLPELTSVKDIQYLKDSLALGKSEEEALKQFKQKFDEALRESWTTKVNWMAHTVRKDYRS
Sequence of PIK3CB (P27986 whole entry partner): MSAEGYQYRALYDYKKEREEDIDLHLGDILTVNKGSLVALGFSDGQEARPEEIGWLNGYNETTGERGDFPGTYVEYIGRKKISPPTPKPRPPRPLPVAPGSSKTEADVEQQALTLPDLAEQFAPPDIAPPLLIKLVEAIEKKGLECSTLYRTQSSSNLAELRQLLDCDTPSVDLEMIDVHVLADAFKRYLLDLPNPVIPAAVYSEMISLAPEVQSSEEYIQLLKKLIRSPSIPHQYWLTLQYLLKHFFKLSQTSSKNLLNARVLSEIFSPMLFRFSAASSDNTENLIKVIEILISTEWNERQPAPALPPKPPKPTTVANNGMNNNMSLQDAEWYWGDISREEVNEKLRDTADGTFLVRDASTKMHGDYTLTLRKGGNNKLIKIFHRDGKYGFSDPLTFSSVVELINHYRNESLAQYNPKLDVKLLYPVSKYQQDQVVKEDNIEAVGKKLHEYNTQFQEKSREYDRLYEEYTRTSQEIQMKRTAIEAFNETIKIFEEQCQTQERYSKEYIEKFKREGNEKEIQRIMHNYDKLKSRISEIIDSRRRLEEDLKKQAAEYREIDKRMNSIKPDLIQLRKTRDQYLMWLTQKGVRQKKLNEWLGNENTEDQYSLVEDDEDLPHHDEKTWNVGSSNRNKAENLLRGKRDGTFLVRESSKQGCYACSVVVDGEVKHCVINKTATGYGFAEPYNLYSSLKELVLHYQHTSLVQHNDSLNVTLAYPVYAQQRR

PYK2 = PYK2 (Homo sapiens (Human), UniProt Q14289); details: PYK2, read-out: percent inhibition
RSK1 domain1 = RSK1 domain1 (Homo sapiens (Human), UniProt Q15418); details: RSK1 domain1, read-out: percent inhibition
SLK = SLK (Homo sapiens (Human), UniProt Q9H2G2); details: SLK, read-out: percent inhibition
Sequence of SLK (Q9H2G2 whole entry): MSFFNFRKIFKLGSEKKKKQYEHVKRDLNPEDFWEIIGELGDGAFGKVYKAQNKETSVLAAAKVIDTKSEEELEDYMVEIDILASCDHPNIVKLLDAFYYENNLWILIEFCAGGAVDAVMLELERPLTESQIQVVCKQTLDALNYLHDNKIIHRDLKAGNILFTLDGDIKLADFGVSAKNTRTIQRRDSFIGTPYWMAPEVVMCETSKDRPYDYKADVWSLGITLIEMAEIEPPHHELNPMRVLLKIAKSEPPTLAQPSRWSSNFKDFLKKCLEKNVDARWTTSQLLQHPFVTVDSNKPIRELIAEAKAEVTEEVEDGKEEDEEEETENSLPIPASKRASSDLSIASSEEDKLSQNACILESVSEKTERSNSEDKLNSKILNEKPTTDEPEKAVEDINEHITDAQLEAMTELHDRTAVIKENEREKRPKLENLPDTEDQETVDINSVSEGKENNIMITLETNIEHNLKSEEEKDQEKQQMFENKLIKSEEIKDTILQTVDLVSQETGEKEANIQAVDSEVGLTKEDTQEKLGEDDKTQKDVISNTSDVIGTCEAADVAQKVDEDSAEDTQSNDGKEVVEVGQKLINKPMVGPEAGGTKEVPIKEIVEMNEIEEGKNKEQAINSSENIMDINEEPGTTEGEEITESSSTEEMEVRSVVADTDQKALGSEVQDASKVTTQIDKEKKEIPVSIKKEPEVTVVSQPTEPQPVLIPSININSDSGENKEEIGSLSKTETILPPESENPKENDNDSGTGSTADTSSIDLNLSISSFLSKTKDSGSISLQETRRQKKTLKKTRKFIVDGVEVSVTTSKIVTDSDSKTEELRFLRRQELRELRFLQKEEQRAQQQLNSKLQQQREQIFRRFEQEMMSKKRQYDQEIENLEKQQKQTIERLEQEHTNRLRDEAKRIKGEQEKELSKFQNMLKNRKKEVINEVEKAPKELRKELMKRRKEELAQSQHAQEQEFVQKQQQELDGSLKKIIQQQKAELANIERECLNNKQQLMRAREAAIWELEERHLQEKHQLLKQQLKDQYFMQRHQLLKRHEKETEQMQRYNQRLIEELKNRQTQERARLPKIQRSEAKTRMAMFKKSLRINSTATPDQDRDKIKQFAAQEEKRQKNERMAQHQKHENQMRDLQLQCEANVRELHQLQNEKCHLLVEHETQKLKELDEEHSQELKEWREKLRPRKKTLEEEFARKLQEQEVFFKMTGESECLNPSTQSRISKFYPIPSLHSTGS

STLK5 = STLK5 (Homo sapiens (Human), UniProt Q7RTN6); details: STLK5, read-out: percent inhibition
Sequence of STLK5 (Q7RTN6 whole entry): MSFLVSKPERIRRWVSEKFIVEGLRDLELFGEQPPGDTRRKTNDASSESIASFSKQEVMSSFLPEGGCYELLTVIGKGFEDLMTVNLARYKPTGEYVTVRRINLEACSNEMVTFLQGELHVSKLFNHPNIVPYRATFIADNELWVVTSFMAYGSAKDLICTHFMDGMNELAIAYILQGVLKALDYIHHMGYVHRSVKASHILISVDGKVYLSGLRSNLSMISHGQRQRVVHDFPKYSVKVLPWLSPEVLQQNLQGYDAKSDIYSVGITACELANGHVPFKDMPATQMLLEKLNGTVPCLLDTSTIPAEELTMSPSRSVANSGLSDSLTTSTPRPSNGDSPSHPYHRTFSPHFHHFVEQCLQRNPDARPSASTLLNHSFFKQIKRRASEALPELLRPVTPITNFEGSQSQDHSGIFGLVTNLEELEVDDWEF

TAO1, TAO3 = system: TAO1, TAO3
Wnk1, Wnk2, Wnk4 = system: Wnk1, Wnk2, Wnk4

Sequence of BTK (Q06187 whole entry): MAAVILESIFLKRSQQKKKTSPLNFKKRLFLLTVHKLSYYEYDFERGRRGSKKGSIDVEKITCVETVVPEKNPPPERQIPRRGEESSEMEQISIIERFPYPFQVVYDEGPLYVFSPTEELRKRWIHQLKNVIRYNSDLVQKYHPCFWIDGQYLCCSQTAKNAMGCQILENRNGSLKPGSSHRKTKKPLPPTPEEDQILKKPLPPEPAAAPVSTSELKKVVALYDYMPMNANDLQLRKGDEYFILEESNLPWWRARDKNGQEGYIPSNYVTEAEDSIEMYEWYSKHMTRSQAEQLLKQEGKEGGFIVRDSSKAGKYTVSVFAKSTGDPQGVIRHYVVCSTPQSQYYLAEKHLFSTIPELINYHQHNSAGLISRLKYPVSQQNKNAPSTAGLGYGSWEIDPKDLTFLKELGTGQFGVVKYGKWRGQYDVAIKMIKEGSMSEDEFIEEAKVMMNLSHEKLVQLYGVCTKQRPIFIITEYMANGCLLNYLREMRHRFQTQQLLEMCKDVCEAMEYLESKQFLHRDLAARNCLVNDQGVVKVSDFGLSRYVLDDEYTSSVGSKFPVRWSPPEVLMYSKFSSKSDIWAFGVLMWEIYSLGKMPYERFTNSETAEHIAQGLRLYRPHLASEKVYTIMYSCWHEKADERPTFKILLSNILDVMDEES

Question: For `Cn1cc(-c2c[nH]c3ncnc(N4CCOCC4)c23)cc1C#N` [Example 217, 1-methyl-4-[4-(morpholin-4-yl)-7H-pyrrolo[2,3-d]pyrimidin-5-yl]-1H-pyrrole-2-carbonitrile], which inhibition at 0.1 µM (BTK; 0.1 μM) is on record?
Answer: Its inhibition at 0.1 µM is 24.3%.

Question: And the inhibition at 1 µM (BTK; 1 μM)?
Answer: The inhibition at 1 µM was 8.5%.

Question: What about the inhibition at 0.1 µM (CaMK1d; 0.1 μM) of the same compound?
Answer: Its inhibition at 0.1 µM is 11.7%.

Question: What about the inhibition at 1 µM (CaMK1d; 1 μM) of the same compound?
Answer: Its inhibition at 1 µM is 3.1%.

Question: And the inhibition at 0.1 µM (DNAPK; 0.1 μM)?
Answer: Its inhibition at 0.1 µM is 31%.

Question: And the inhibition at 1 µM (DNAPK; 1 μM)?
Answer: Its inhibition at 1 µM is 31.5%.

Question: What about the inhibition at 0.1 µM (EphA1; 0.1 μM) of the same compound?
Answer: The inhibition at 0.1 µM was 11.1%.

Question: What about the inhibition at 1 µM (EphA1; 1 μM) of the same compound?
Answer: The inhibition at 1 µM was -16.1%.

Question: And the inhibition at 0.1 µM (FGR; 0.1 μM)?
Answer: The inhibition at 0.1 µM was -1.2%.

Question: And the inhibition at 1 µM (FGR; 1 μM)?
Answer: The inhibition at 1 µM was -0.5%.

Question: What about the inhibition at 0.1 µM (FRAP; 0.1 μM) of the same compound?
Answer: Its inhibition at 0.1 µM is 0.7%.

Question: What about the inhibition at 1 µM (FRAP; 1 μM) of the same compound?
Answer: The inhibition at 1 µM was 0.9%.

Question: And the inhibition at 0.1 µM (GSK3B; 0.1 μM)?
Answer: Its inhibition at 0.1 µM is -4.3%.

Question: And the inhibition at 1 µM (GSK3B; 1 μM)?
Answer: The inhibition at 1 µM was 12.4%.

Question: What about the inhibition at 0.1 µM (HPK1; 0.1 μM) of the same compound?
Answer: The inhibition at 0.1 µM was -13.7%.

Question: And the inhibition at 1 µM (HPK1; 1 μM)?
Answer: The inhibition at 1 µM was 1.7%.

Question: And the inhibition at 0.1 µM (IKKa; 0.1 μM)?
Answer: The inhibition at 0.1 µM was -2.5%.

Question: What about the inhibition at 1 µM (IKKa; 1 μM) of the same compound?
Answer: The inhibition at 1 µM was -3.7%.

Question: And the inhibition at 0.1 µM (IKKb; 0.1 μM)?
Answer: The inhibition at 0.1 µM was 7.1%.

Question: What about the inhibition at 1 µM (IKKb; 1 μM) of the same compound?
Answer: The inhibition at 1 µM was 6.5%.

Question: What about the inhibition at 0.1 µM (ILK; 0.1 μM) of the same compound?
Answer: The inhibition at 0.1 µM was -6.3%.

Question: And the inhibition at 1 µM (ILK; 1 μM)?
Answer: The inhibition at 1 µM was -3.8%.

Question: And the inhibition at 0.1 µM (IRAK3; 0.1 μM)?
Answer: Its inhibition at 0.1 µM is 16%.

Question: And the inhibition at 1 µM (IRAK3; 1 μM)?
Answer: The inhibition at 1 µM was 72.4%.

Question: And the inhibition at 0.1 µM (JAK1; 0.1 μM)?
Answer: Its inhibition at 0.1 µM is -3%.

Question: What about the inhibition at 1 µM (JAK1; 1 μM) of the same compound?
Answer: The inhibition at 1 µM was 11.4%.

Question: And the inhibition at 0.1 µM (JAK3 domain2; 0.1 μM)?
Answer: Its inhibition at 0.1 µM is -7.8%.

Question: And the inhibition at 1 µM (JAK3 domain2; 1 μM)?
Answer: Its inhibition at 1 µM is 4.9%.

Question: What about the percent inhibition (JNK1, JNK2, JNK3; 0.1 μM) of the same compound?
Answer: The percent inhibition was −18.2%.

Question: What about the percent inhibition (JNK1, JNK2, JNK3; 1 μM) of the same compound?
Answer: Its percent inhibition is −6.4%.

Question: What about the inhibition at 0.1 µM (LKB1; 0.1 μM) of the same compound?
Answer: The inhibition at 0.1 µM was -5.3%.

Question: What about the inhibition at 1 µM (LKB1; 1 μM) of the same compound?
Answer: The inhibition at 1 µM was 2.4%.

Question: And the inhibition at 0.1 µM (LYN; 0.1 μM)?
Answer: The inhibition at 0.1 µM was 8.3%.

Question: And the inhibition at 1 µM (LYN; 1 μM)?
Answer: Its inhibition at 1 µM is -19.2%.

Question: What about the inhibition at 0.1 µM (MAP2K3; 0.1 μM) of the same compound?
Answer: Its inhibition at 0.1 µM is 2.5%.

Question: And the inhibition at 1 µM (MAP2K3; 1 μM)?
Answer: Its inhibition at 1 µM is 3.3%.

Question: What about the inhibition at 0.1 µM (MAP2K4; 0.1 μM) of the same compound?
Answer: The inhibition at 0.1 µM was 2.3%.

Question: And the inhibition at 1 µM (MAP2K4; 1 μM)?
Answer: The inhibition at 1 µM was 1.6%.

Question: What about the inhibition at 0.1 µM (MAP3K1; 0.1 μM) of the same compound?
Answer: Its inhibition at 0.1 µM is -17.3%.

Question: And the inhibition at 1 µM (MAP3K1; 1 μM)?
Answer: Its inhibition at 1 µM is 14.8%.

Question: What about the inhibition at 0.1 µM (MARK3; 0.1 μM) of the same compound?
Answer: Its inhibition at 0.1 µM is 16.2%.

Question: And the inhibition at 1 µM (MARK3; 1 μM)?
Answer: Its inhibition at 1 µM is 18.4%.

Question: And the inhibition at 0.1 µM (MST3; 0.1 μM)?
Answer: The inhibition at 0.1 µM was 6.7%.

Question: What about the inhibition at 1 µM (MST3; 1 μM) of the same compound?
Answer: The inhibition at 1 µM was 10.9%.

Question: What about the inhibition at 0.1 µM (NEK1; 0.1 μM) of the same compound?
Answer: Its inhibition at 0.1 µM is 4.8%.

Question: And the inhibition at 1 µM (NEK1; 1 μM)?
Answer: Its inhibition at 1 µM is -5.1%.

Question: And the percent inhibition (NEK6, NEK7; 0.1 μM)?
Answer: Its percent inhibition is −2.9%.

Question: And the percent inhibition (NEK6, NEK7; 1 μM)?
Answer: Its percent inhibition is 6.4%.

Question: And the inhibition at 0.1 µM (NEK7; 0.1 μM)?
Answer: The inhibition at 0.1 µM was -9%.

Question: What about the inhibition at 1 µM (NEK7; 1 μM) of the same compound?
Answer: The inhibition at 1 µM was -2.3%.

Question: And the percent inhibition (p38d, p38g; 0.1 μM)?
Answer: Its percent inhibition is −0.4%.

Question: What about the percent inhibition (p38d, p38g; 1 μM) of the same compound?
Answer: The percent inhibition was 1.5%.

Question: And the inhibition at 0.1 µM (p70S6K; 0.1 μM)?
Answer: The inhibition at 0.1 µM was 3.5%.

Question: What about the inhibition at 1 µM (p70S6K; 1 μM) of the same compound?
Answer: Its inhibition at 1 µM is -9.6%.

Question: What about the percent inhibition (p70S6K, p70S6Kb; 0.1 μM) of the same compound?
Answer: The percent inhibition was 5.5%.

Question: What about the percent inhibition (p70S6K, p70S6Kb; 1 μM) of the same compound?
Answer: The percent inhibition was 5.4%.

Question: What about the inhibition at 0.1 µM (PIK3C3; 0.1 μM) of the same compound?
Answer: The inhibition at 0.1 µM was 19.9%.

Question: And the inhibition at 1 µM (PIK3C3; 1 μM)?
Answer: The inhibition at 1 µM was 10.2%.

Question: And the inhibition at 0.1 µM (PIK3CB; 0.1 μM)?
Answer: The inhibition at 0.1 µM was -5.3%.

Question: What about the inhibition at 1 µM (PIK3CB; 1 μM) of the same compound?
Answer: The inhibition at 1 µM was -29.7%.

Question: What about the inhibition at 0.1 µM (PYK2; 0.1 μM) of the same compound?
Answer: The inhibition at 0.1 µM was -1%.

Question: What about the inhibition at 1 µM (PYK2; 1 μM) of the same compound?
Answer: The inhibition at 1 µM was 8.4%.

Question: What about the inhibition at 0.1 µM (RSK1 domain1; 0.1 μM) of the same compound?
Answer: The inhibition at 0.1 µM was 27.6%.

Question: And the inhibition at 1 µM (RSK1 domain1; 1 μM)?
Answer: The inhibition at 1 µM was 45.6%.

Question: And the inhibition at 0.1 µM (SLK; 0.1 μM)?
Answer: Its inhibition at 0.1 µM is 22.5%.

Question: And the inhibition at 1 µM (SLK; 1 μM)?
Answer: Its inhibition at 1 µM is 39.1%.

Question: What about the inhibition at 0.1 µM (STLK5; 0.1 μM) of the same compound?
Answer: Its inhibition at 0.1 µM is -6.9%.

Question: And the inhibition at 1 µM (STLK5; 1 μM)?
Answer: The inhibition at 1 µM was -11.5%.

Question: What about the percent inhibition (TAO1, TAO3; 0.1 μM) of the same compound?
Answer: Its percent inhibition is −9.7%.

Question: And the percent inhibition (TAO1, TAO3; 1 μM)?
Answer: Its percent inhibition is −16.5%.

Question: What about the percent inhibition (Wnk1, Wnk2, Wnk4; 0.1 μM) of the same compound?
Answer: Its percent inhibition is 2.2%.

Question: What about the percent inhibition (Wnk1, Wnk2, Wnk4; 1 μM) of the same compound?
Answer: The percent inhibition was −5.4%.
